The source of these data is ChEMBL document CHEMBL3108773, “Antihyperglycemic glucosylated coumaroyltyramine derivatives from Teucrium viscidum” (J Nat Prod, 2014).

The structures appear in SMILES notation.

Series [1] deals with HepG2. Briefly: Cytotoxicity against human HepG2 cells assessed as cell viability up to 30 uM by MTT assay. It counts as cell-based.
Series [2] can be described thus: Cytotoxicity against mouse 3T3L1 cells assessed as cell viability up to 30 uM by MTT assay. It counts as cell-based. The note with it: 3t3-l1.
Series [3] deals with HepG2. Put plainly: Antihyperglycemic activity in human HepG2 cells assessed as stimulation of glucose consumption at 2 uM after 36 hrs by glucose oxidase assay in presence of high glucose condition relative to control. It counts as functional.
A short description of series [4]: Antihyperglycemic activity in mouse 3T3L1 cells assessed as stimulation of glucose consumption at 2 uM after 36 hrs by glucose oxidase assay in presence of high glucose condition relative to control. The class given is functional, 3T3-L1.

Turning to `COc1ccc(/C=C/C(=O)NCCc2ccc(O[C@@H]3O[C@@H](C)[C@H](O)[C@@H](O[C@@H]4O[C@H](CO)[C@@H](O)[C@H](O)[C@H]4O)[C@H]3O[C@@H]3O[C@H](CO)[C@@H](O)[C@H](O)[C@H]3O)cc2)cc1`, the Activity result (in the series with HepG2 [1]; in series [2]) was “Non-toxic” each time. For the same compound, the “fold change (FC)” value in the series on HepG2 [3] is given as 2.2; in series [4] it was 2.5.
For the compound `COc1ccc(/C=C/C(=O)NCCc2ccc(O[C@@H]3O[C@@H](C)[C@H](OC(C)=O)[C@@H](O[C@@H]4O[C@H](CO)[C@@H](O)[C@H](O)[C@H]4O)[C@H]3O[C@@H]3O[C@H](CO)[C@@H](O)[C@H](O)[C@H]3O)cc2)cc1`, the Activity entry (in the series with HepG2 [1]; in series [2]) was “Non-toxic” each time. In addition, the “fold change (FC)” value (in the series on HepG2 [3]; in series [4]) was 2.1 each time.
`COc1ccc(/C=C/C(=O)NCCc2ccc(O[C@@H]3O[C@@H](C)[C@H](OC(C)=O)[C@@H](O[C@@H]4O[C@H](CO)[C@@H](O)[C@H](O)[C@H]4O)[C@H]3O[C@@H]3O[C@H](COC(C)=O)[C@@H](O)[C@H](O)[C@H]3O)cc2)cc1`: the Activity entry (with HepG2 [1]; in series [2]) was “Non-toxic” in each case. Moreover, the entries for the “fold change (FC)” value (with HepG2 [3]; in series [4]) were 1.7 and 1.6, respectively.
With `COc1ccc(/C=C/C(=O)NCCc2ccc(O[C@@H]3O[C@@H](C)[C@H](OC(C)=O)[C@@H](O[C@@H]4O[C@H](COC(C)=O)[C@@H](O)[C@H](O)[C@H]4O)[C@H]3O[C@@H]3O[C@H](COC(C)=O)[C@@H](O)[C@H](O)[C@H]3O)cc2)cc1`, the Activity entry (with HepG2 [1]; in series [2]) was “Non-toxic” throughout. Besides, the “fold change (FC)” value in the series on HepG2 [3] is given as 1.7; in series [4], 1.6.
As to `COc1ccc(/C=C\C(=O)NCCc2ccc(O[C@@H]3O[C@@H](C)[C@H](O)[C@@H](O[C@@H]4O[C@H](CO)[C@@H](O)[C@H](O)[C@H]4O)[C@H]3O[C@@H]3O[C@H](CO)[C@@H](O)[C@H](O)[C@H]3O)cc2)cc1`, the Activity entry (in the series with HepG2 [1]; in series [2]) was “Non-toxic” each time. For the same compound, the “fold change (FC)” value in the series with HepG2 [3] was determined as 1.7; in series [4] it was 1.6.
Take `COc1ccc(/C=C\C(=O)NCCc2ccc(O[C@@H]3O[C@@H](C)[C@H](OC(C)=O)[C@@H](O[C@@H]4O[C@H](CO)[C@@H](O)[C@H](O)[C@H]4O)[C@H]3O[C@@H]3O[C@H](CO)[C@@H](O)[C@H](O)[C@H]3O)cc2)cc1`: the Activity entry (in the series with HepG2 [1]; in series [2]) was “Non-toxic” each time. Also, the “fold change (FC)” value with HepG2 [3] is on record as 2.2; in series [4] it was 2.3.
For the compound `COc1ccc(/C=C\C(=O)NCCc2ccc(O[C@@H]3O[C@@H](C)[C@H](OC(C)=O)[C@@H](O[C@@H]4O[C@H](CO)[C@@H](O)[C@H](O)[C@H]4O)[C@H]3O[C@@H]3O[C@H](COC(C)=O)[C@@H](O)[C@H](O)[C@H]3O)cc2)cc1`, the Activity entry (in the series on HepG2 [1]; in series [2]) was “Non-toxic” in each case. Further, the “fold change (FC)” value in the series on HepG2 [3] was 1.7; in series [4], 1.6.
For the compound `COc1ccc(/C=C\C(=O)NCCc2ccc(O[C@@H]3O[C@@H](C)[C@H](OC(C)=O)[C@@H](O[C@@H]4O[C@H](COC(C)=O)[C@@H](O)[C@H](O)[C@H]4O)[C@H]3O[C@@H]3O[C@H](COC(C)=O)[C@@H](O)[C@H](O)[C@H]3O)cc2)cc1`, the Activity entry (in the series on HepG2 [1]; in series [2]) was “Non-toxic” each time. Moreover, the “fold change (FC)” value in the series with HepG2 [3] is 1.7; in series [4], 1.6.
